According to patent US20240409935A1, “Atg8ylation coordinates stress granule formation and mTOR inactivation in response to lysosomal damage” (priority 2023, published 2024):

Assays:
Type in all cases: cell-based, human
[1] = tested on: G3BP1 puncta in Huh7 cells; experiment: HCM quantification of G3BP1 puncta in Huh7 cells; conditions: 2 mM LLOMe for 30 min
[2] = tested on: mTOR and Raptor on lysosomes; experiment: LysoIP quantitative DIA proteomics (LC/MS/MS) of lysosomes from HEK293T cells; conditions: 1 mM LLOMe for 30 min
Procedure: Three groups of proteins are labeled (ESCRT components in green, autophagy factors in blue and stress granule components in purple). […] The dotted orange line indicates the significance cut-off (P<0.05). […] The significant increased proteins in LysoIP LC/MS/MS were analyzed by STRING functional protein association networks. […] Strength, Log 10(observed/expected) describes how large the enrichment effect is. […] TMEM192-2×FLAG, control. […] U20S cells Were treated with Earle's Balanced Salt Solution (EBSS), 4 mM LOMe, 2 mM LLOMe, 200 μM GPN, or 400 μg/mL silica for 30 min. White masks, algorithm-defined cell boundaries (primary objects); red masks, computer-identified G3BP1 puncta (target objects). […] U2OS cells Were treated with 2 mM LLOMe for 30 min and stained for endogenous G3BP1. Scale bar, 5 μm. […] Green masks, computer-identified G3BP1 puncta. […] Red masks, computer-identified Galectin-3 puncta. FIG. 1G Immunoblot analysis of eIF2α (S51) phosphorylation in U2OS cells treated with 2 mM LLOMe for 30 min and followed by 1 h washout. […] The level of phosphorylation of eIF2α (S51) is quantified based on three independent experiments. […] Scale bar, 5/10 μm. […] The level of ATF4 and phosphorylation of eIF2α (S51) and 4EBP1 (S65) are quantified based on three independent experiments. Ctrl, control (untreated cells). […]

[3] = tested on: U2OS wildtype (WT) and ΔΔG3BP1/2 cells; experiment: Propidium iodide (PI) uptake cell death assay (HCM) in U2OS WT and ΔΔG3BP1/2 cells; conditions: ΔΔG3BP1/2 cells compared to wildtype U2OS cells, 2 mM LLOMe for 30 min
Procedure: Cells Were treated with 2 mM LLOMe for 30 min, and then stained with propidium iodide (PI) (dead cells) and Hoechst-33342 (total cells). White masks, algorithm-defined cell boundaries (primary objects); red masks, computer-identified PI^+ nuclei (target objects). […] Cells Were treated with 2 mM LLOMe for 30 min. […] Cells Were treated with 2 mM in the presence or absence of 10 μg/ml cycloheximide (CHX) for 30 min, and then stained with PI (dead cells) and Hoechst-33342 (total cells). […] Scale bar, 10 μm. […] Cells Were treated with 2 mM LLOMe with or without CHX for 30 min, and then stained using Live/Dead™ stain kit (ThermoFisher). […] (i) HCM images: white masks, algorithm-defined cell boundaries; green masks, computer-identified eIF4G puncta; red masks, computer-identified PI^+ nuclei (target objects); (ii and iii) corresponding HCM quantification. […]
How does SG formation affect cell fate during lysosomal damage? […] The inventors quantified the number of SGs using the canonical SG marker polyA RNA (Ivanov et al., 2019) via high-content microscopy (HCM) (FIG. S1B) and verified the depletion of SG formation in ΔΔG3BP1/2 cells when exposed to the lysosome-specific damaging agent L-leucyl-L-leucine methyl ester (LLOMe) (Jia et al., 2022; Tan et al., 2022; Thiele et al., 1990) (FIG. 7SB). […]

[4] = tested on: polyA RNA in G3BP1 puncta; experiment: Confocal microscopy of G3BP1 and polyA RNA (Cy3-oligo[dT]) by FISH in U2OS cells; conditions: 2 mM LLOMe for 30 min

COC(=O)[C@H](CC(C)C)NC(=O)[C@@H](N)CC(C)C [LLOMe, L-leucyl-L-leucine methyl ester]
SG response (G3BP1 puncta) [1]: SG response was detected
mTOR and Raptor association with lysosomes (mass spectrometry) [2]: mTOR and Raptor dissociate from lysosomes
cell death by PI uptake assay [3]: significant cell death
overlap of G3BP1 puncta with polyA RNA probe (Cy3-oligo-dT, FISH) [4]: completely overlapped with polyA RNA probe
